Test results from patent US20090246293A1 (priority 2008, published 2009).
Where two headings read alike, the source gives them in different places.

Columns and labels:
[1] = system: Pseudoperonospora cubensis (PSPECU); conditions: in vivo
[2] = system: Plasmopara viticola (PLASVI); type: in vivo; conditions: for Reduction in percent disease, Formul. I / Reduction in percent disease, Formul. II / Reduction in percent disease: PLASVI; for Reduction in percent disease, Formul. I / Reduction in percent disease, Formul. II: Table 21; for Reduction in percent disease, Formul. II: fungicide with Formulation II at 100 ppm; for effect of Formulation I on the effectiveness of fungicides, PLASVI: Table 20; for Reduction in percent disease: aldehyde derivative 100 ppm with mancozeb
[3] = system: Phytophthora infestans (PHYTIN); type: in vivo; conditions: for Reduction in percent disease, Formul. I / Reduction in percent disease, Formul. II: PHYTIN; for Reduction in percent disease, Formul. II: fungicide with Formulation II at 100 ppm; for effect of Formulation I on the effectiveness of fungicides, PHYTIN: Table 20
[4] = fungicide with Formulation I at 100 ppm, Table 19
[5] = fungicide with Formulation I at 100 ppm
[6] = fungicide with Formulation I at 100 ppm, Table 21
[7] = fungicide with Formulation I at 100 ppm, Table 18
[8] = aldehyde derivative 500 ppm with mancozeb, Table 16

C[C@@]1(c2ccc(Oc3ccccc3)cc2)OC(=O)N(Nc2ccccc2)C1=O (racemic) [Famoxadone]
Reduction in percent disease PSPECU [1]: x (key: x: 0-20% reduction in percent disease; xx: 21-35% reduction in percent disease; xxx: 36-50% reduction in percent disease; xxxx: >50% reduction in percent disease)
Reduction in percent disease PLASVI [2, 4]: x (0-20% reduction in percent disease)
Reduction in percent disease PHYTIN [3, 4]: xx (21-35% reduction in percent disease)

Cc1c(Br)c2ccc(F)cc2n1S(=O)(=O)c1ncn(S(=O)(=O)N(C)C)n1 [Amisulbrom]
Reduction in percent disease, Formul. I [1]: x (key: x: 0-20% reduction in percent disease; xx: 21-35% reduction in percent disease; xxx: 36-50% reduction in percent disease; xxxx: >50% reduction in percent disease)
Reduction in percent disease, Formul. II [1]: x (key: x: 0-20% reduction in percent disease; xx: 21-35% reduction in percent disease; xxx: 36-50% reduction in percent disease; xxxx: >50% reduction in percent disease)
Reduction in percent disease, Formul. I [2, 5]: xxx (36-50% reduction in percent disease)
Reduction in percent disease, Formul. II [2]: xx (21-35% reduction in percent disease)
effect of Formulation I on the effectiveness of fungicides, PLASVI [2, 5]: x (0-20% reduction in percent disease)
Reduction in percent disease, Formul. I [3, 6]: x (0-20% reduction in percent disease)
Reduction in percent disease, Formul. II ([3]; Table 21): x (0-20% reduction in percent disease)
effect of Formulation I on the effectiveness of fungicides, PHYTIN [3, 5]: x (0-20% reduction in percent disease)

CO/C=C(/C(=O)OC)c1ccccc1Oc1cc(Oc2ccccc2C#N)ncn1 [Azoxystrobin]
Reduction in percent disease PSPECU [1]: x (key: x: 0-20% reduction in percent disease; xx: 21-35% reduction in percent disease; xxx: 36-50% reduction in percent disease; xxxx: >50% reduction in percent disease)
effect of Formulation I on the effectiveness of fungicides, PSPECU [1]: x (key: x: 0-20% reduction in percent disease; xx: 21-35% reduction in percent disease; xxx: 36-50% reduction in percent disease; xxxx: >50% reduction in percent disease)
Reduction in percent disease PLASVI [2, 7]: x (0-20% reduction in percent disease)
Reduction in percent disease PHYTIN [3, 7]: xx (21-35% reduction in percent disease)
effect of Formulation I on the effectiveness of fungicides, PHYTIN [3, 5]: xxx (36-50% reduction in percent disease)

CC(C)[C@H](NC(=O)O)C(=O)N[C@H](C)c1nc2ccc(F)cc2s1 [Benthiavalicarb]
Reduction in percent disease PSPECU [1]: xx (key: x: 0-20% reduction in percent disease; xx: 21-35% reduction in percent disease; xxx: 36-50% reduction in percent disease; xxxx: >50% reduction in percent disease)
Reduction in percent disease PLASVI [2, 4]: x (0-20% reduction in percent disease)
Reduction in percent disease PHYTIN [3, 4]: x (0-20% reduction in percent disease)

CC(C)CC=NNC(=O)c1cccc(C(=O)N/N=C/CC(C)C)c1 [Compound C]
Reduction in percent disease [1]: xxx (key: x: 0-20% reduction in percent disease; xx: 21-35% reduction in percent disease; xxx: 36-50% reduction in percent disease; xxxx: >50% reduction in percent disease)
Reduction in percent disease ([2]; Table 13): xx (21-35% reduction in percent disease)
Reduction in percent disease ([2]; Table 15): xx (21-35% reduction in percent disease)

CC(C)C/C=N/NC(N)=O [Compound D]
Reduction in percent disease [1]: xx (key: x: 0-20% reduction in percent disease; xx: 21-35% reduction in percent disease; xxx: 36-50% reduction in percent disease; xxxx: >50% reduction in percent disease)
Reduction in percent disease ([2]; Table 13): x (0-20% reduction in percent disease)

CC(C)C/C=N/NC(=O)CCCC(=O)N/N=C/CC(C)C [Compound E]
Reduction in percent disease [1]: xxx (key: x: 0-20% reduction in percent disease; xx: 21-35% reduction in percent disease; xxx: 36-50% reduction in percent disease; xxxx: >50% reduction in percent disease)
Reduction in percent disease ([2]; Table 13): xx (21-35% reduction in percent disease)

CC(C)C/C=N/NC(=O)N/N=C/CC(C)C [Compound F]
Reduction in percent disease [1]: xx (key: x: 0-20% reduction in percent disease; xx: 21-35% reduction in percent disease; xxx: 36-50% reduction in percent disease; xxxx: >50% reduction in percent disease)
Reduction in percent disease ([2]; Table 13): x (0-20% reduction in percent disease)

CC(C)C/C=N/NC(=O)C(=O)N/N=C/CC(C)C [Compound G]
Reduction in percent disease [1]: xxx (key: x: 0-20% reduction in percent disease; xx: 21-35% reduction in percent disease; xxx: 36-50% reduction in percent disease; xxxx: >50% reduction in percent disease)
Reduction in percent disease ([2]; Table 13): xx (21-35% reduction in percent disease)

CC(=O)N/N=C/CC(C)C [Compound H]
Reduction in percent disease [1]: xx (key: x: 0-20% reduction in percent disease; xx: 21-35% reduction in percent disease; xxx: 36-50% reduction in percent disease; xxxx: >50% reduction in percent disease)
Reduction in percent disease ([2]; Table 13): xx (21-35% reduction in percent disease)

CC(C)C/C=N/NC(=O)CCCCCCCCC(=O)N/N=C/CC(C)C [Compound J]
Reduction in percent disease [1]: xx (key: x: 0-20% reduction in percent disease; xx: 21-35% reduction in percent disease; xxx: 36-50% reduction in percent disease; xxxx: >50% reduction in percent disease)
Reduction in percent disease ([2]; Table 15): x (0-20% reduction in percent disease)

CCCCCCCC(=O)N/N=C/CC(C)C [Compound K]
Reduction in percent disease [1]: xx (key: x: 0-20% reduction in percent disease; xx: 21-35% reduction in percent disease; xxx: 36-50% reduction in percent disease; xxxx: >50% reduction in percent disease)
Reduction in percent disease ([2]; Table 15): xx (21-35% reduction in percent disease)

CCCCCCCCCCCCCCCCCC(=O)NN=CCC(C)C [Compound L]
Reduction in percent disease [1]: xx (key: x: 0-20% reduction in percent disease; xx: 21-35% reduction in percent disease; xxx: 36-50% reduction in percent disease; xxxx: >50% reduction in percent disease)
Reduction in percent disease ([2]; Table 15): xxx (36-50% reduction in percent disease)

CCCC(=O)N/N=C/CC(C)C [Compound M]
Reduction in percent disease [1]: xxx (key: x: 0-20% reduction in percent disease; xx: 21-35% reduction in percent disease; xxx: 36-50% reduction in percent disease; xxxx: >50% reduction in percent disease)
Reduction in percent disease ([2]; Table 15): xx (21-35% reduction in percent disease)

CC(C)C/C=N/NC(=O)CCCCC(=O)N/N=C/CC(C)C [Compound N]
Reduction in percent disease [1]: xx (key: x: 0-20% reduction in percent disease; xx: 21-35% reduction in percent disease; xxx: 36-50% reduction in percent disease; xxxx: >50% reduction in percent disease)
Reduction in percent disease ([2]; Table 15): x (0-20% reduction in percent disease)

C/C(CC(C)C)=N\NC(=O)Nc1ccccc1 [Compound O]
Reduction in percent disease PSPECU [1]: xx (key: x: 0-20% reduction in percent disease; xx: 21-35% reduction in percent disease; xxx: 36-50% reduction in percent disease; xxxx: >50% reduction in percent disease)
Reduction in percent disease PLASVI [2, 8]: x (0-20% reduction in percent disease)
Reduction in percent disease PHYTIN [3, 8]: xx (21-35% reduction in percent disease)

CCC(C)/C=N/NC(=O)c1cccc(C(=O)N/N=C/C(C)CC)c1 (stereo not shown) [Compound P]
Reduction in percent disease PSPECU [1]: x (key: x: 0-20% reduction in percent disease; xx: 21-35% reduction in percent disease; xxx: 36-50% reduction in percent disease; xxxx: >50% reduction in percent disease)
Reduction in percent disease PLASVI [2, 8]: x (0-20% reduction in percent disease)
Reduction in percent disease PHYTIN [3, 8]: x (0-20% reduction in percent disease)

CC(C)(C)C/C=N/NC(=O)c1cccc(C(=O)N/N=C/CC(C)(C)C)c1 [Compound S]
Reduction in percent disease PSPECU [1]: x (key: x: 0-20% reduction in percent disease; xx: 21-35% reduction in percent disease; xxx: 36-50% reduction in percent disease; xxxx: >50% reduction in percent disease)
Reduction in percent disease PLASVI [2, 8]: x (0-20% reduction in percent disease)
Reduction in percent disease PHYTIN [3, 8]: xx (21-35% reduction in percent disease)

CCCCCCCCCc1c(COC)nc2ncnn2c1N [Compound T]
Reduction in percent disease, Formul. I [1]: x (key: x: 0-20% reduction in percent disease; xx: 21-35% reduction in percent disease; xxx: 36-50% reduction in percent disease; xxxx: >50% reduction in percent disease)
Reduction in percent disease, Formul. II [1]: x (key: x: 0-20% reduction in percent disease; xx: 21-35% reduction in percent disease; xxx: 36-50% reduction in percent disease; xxxx: >50% reduction in percent disease)
Reduction in percent disease, Formul. I [2, 5]: x (0-20% reduction in percent disease)
Reduction in percent disease, Formul. II [2]: x (0-20% reduction in percent disease)
Reduction in percent disease, Formul. I [3, 6]: x (0-20% reduction in percent disease)
Reduction in percent disease, Formul. II ([3]; Table 21): x (0-20% reduction in percent disease)

[Cl-].[Cu+2].[Cu+2].[OH-].[OH-].[OH-] [Copper oxychloride]
effect of Formulation I on the effectiveness of fungicides, PSPECU [1]: x (key: x: 0-20% reduction in percent disease; xx: 21-35% reduction in percent disease; xxx: 36-50% reduction in percent disease; xxxx: >50% reduction in percent disease)
effect of Formulation I on the effectiveness of fungicides, PLASVI [2, 5]: x (0-20% reduction in percent disease)
effect of Formulation I on the effectiveness of fungicides, PHYTIN [3, 5]: x (0-20% reduction in percent disease)

O=C1c2ccccc2C(=O)N1SC(Cl)(Cl)Cl [Folpet]
Reduction in percent disease, Formul. I [1]: x (key: x: 0-20% reduction in percent disease; xx: 21-35% reduction in percent disease; xxx: 36-50% reduction in percent disease; xxxx: >50% reduction in percent disease)
Reduction in percent disease, Formul. I ([3]; fungicide with Formulation I at 100 ppm of attractant derivative, Table 22): x (0-20% reduction in percent disease)

CO/N=C(/C(=O)OC)c1ccccc1COc1ccccc1C [Kresoxim-methyl]
Reduction in percent disease PSPECU [1]: x (key: x: 0-20% reduction in percent disease; xx: 21-35% reduction in percent disease; xxx: 36-50% reduction in percent disease; xxxx: >50% reduction in percent disease)
Reduction in percent disease, Formul. II [1]: x (key: x: 0-20% reduction in percent disease; xx: 21-35% reduction in percent disease; xxx: 36-50% reduction in percent disease; xxxx: >50% reduction in percent disease)
Reduction in percent disease PHYTIN [3, 7]: x (0-20% reduction in percent disease)

COC(=O)N(OC)c1ccccc1COc1ccn(-c2ccc(Cl)cc2)n1 [Pyraclostrobin]
Reduction in percent disease PSPECU [1]: x (key: x: 0-20% reduction in percent disease; xx: 21-35% reduction in percent disease; xxx: 36-50% reduction in percent disease; xxxx: >50% reduction in percent disease)
Reduction in percent disease PHYTIN [3, 7]: x (0-20% reduction in percent disease)
